Experimental data as given in patent publication US10620215B2, “Real-time imaging sensor for measuring cellular thiol level” (CELL2IN, INC., priority 2014, dated 2020).

Columns and labels:
HeLa cells = assay: Level of thiols / reduced GSH in living HeLa cells, by FreSH-tracer fluorescence intensity ratio; type: cell-based; conditions: treatment with GSH-related enzyme inhibitor
Procedure: HeLa and RAW264.7 cells were cultured in DMEM (containing 10% heat-inactivated FBS (Hyclone), 100 U/ml of penicillin, 100 μg/ml of streptomycin sulfate and 2 mM glutamine and free of phenol red). HeLa (1.8×10^5 cells/dish) and RAW264.7 (2×10^5 cells/dish) were seeded in 35 mm cover glass bottom dishes (SPL Life Sciences), and then cultured under the conditions of 37° C. and 5% CO2 for the indicated time. Before observation using a fluorescence microscope, the HeLa cells were incubated with 2 mL of a medium containing 5 μM of the FreSH-tracer HeLa for 2 hours, and the RAW264.7 cells were incubated for 4 hours. Real-time images of the cells were acquired using a Nikon A1 laser scanning confocal microscope. The imaging test was 2 performed while the cells were incubated under the conditions of 37° C. and 5% CO2 in a chamber mounted in a Nikon ECLIPSE Ti inverted microscope equipped with CFI Plan apochromat 60× and 1.40 numerical aperture (NA) objective lenses. The FreSH-tracer was excited with laser beams at 403 nm and 488 nm, and the fluorescence of the tracer was detected through filters with 500-550 nm and 570-620 nm band intervals. Using NIS-Elements AR software, the experimental data were analyzed and the ratio of fluorescence was imaged. […]

RAW264.7 = assay: Level of thiols in RAW264.7 macrophages after NADPH oxidase activation, by FreSH-tracer F510/F580 ratio; type: cell-based; conditions: PMA treatment for 10-20 minutes; returned to basal level after 40-50 minutes
Procedure: HeLa and RAW264.7 cells were cultured in DMEM (containing 10% heat-inactivated FBS (Hyclone), 100 U/ml of penicillin, 100 μg/ml of streptomycin sulfate and 2 mM glutamine and free of phenol red). HeLa (1.8×10^5 cells/dish) and RAW264.7 (2×10^5 cells/dish) were seeded in 35 mm cover glass bottom dishes (SPL Life Sciences), and then cultured under the conditions of 37° C. and 5% CO2 for the indicated time. Before observation using a fluorescence microscope, the HeLa cells were incubated with 2 mL of a medium containing 5 μM of the FreSH-tracer HeLa for 2 hours, and the RAW264.7 cells were incubated for 4 hours. Real-time images of the cells were acquired using a Nikon A1 laser scanning confocal microscope. The imaging test was 2 performed while the cells were incubated under the conditions of 37° C. and 5% CO2 in a chamber mounted in a Nikon ECLIPSE Ti inverted microscope equipped with CFI Plan apochromat 60× and 1.40 numerical aperture (NA) objective lenses. The FreSH-tracer was excited with laser beams at 403 nm and 488 nm, and the fluorescence of the tracer was detected through filters with 500-550 nm and 570-620 nm band intervals. Using NIS-Elements AR software, the experimental data were analyzed and the ratio of fluorescence was imaged.
ROS that are generated by phagocytic NADPH oxidase (Phox) activity are essential defense substances that kill invasive microorganisms. […]

[1] = Chemical equilibrium constant (Kd) of the tracer with β-mercaptoethanol, from fluorescence emission after equilibration; type: binding
Procedure: (§1) A buffer (10 mM phosphate, 150 mM NaCl, pH 7.4, H2O:DMSO=98:2) containing a mixture of a thiol compound (0-200 mM) and a FreSH-tracer (10 μM) was prepared, and the time-dependent UV-Vis absorption spectrum and fluorescence emission spectrum of the buffer were measured with S-3100 spectrophotometer and Hitachi F-7000 spectrophotometer. For preparation of buffers for use in in vitro experiments at pHs of pH 4, 5, 9 and 10, acetate and CHES (2-(cyclohexylamino)ethanesulfonate) were used instead of phosphate.
(§2) After a chemical equilibrium between the thiol compound (0-200 mM) and the FreSH-tracer was formed by an in vitro reaction, the emission spectrum of fluorescence emitted upon excitation with light at a wavelength of 430 nm was measured. The relationship between the fluorescence intensity at the maximum emission wavelength (580 nm) and the concentration of the thiol compound was analyzed by non-linear regression to determine the chemical equilibrium constant (Kd) between the thiol compound and the FreSH-tracer.

[2] = Chemical equilibrium constant (Kd) and fluorescence ratio response of the tracer with glutathione (GSH) in vitro; type: binding; conditions: equilibration with GSH
Procedure: as §1, §2

Structure (SMILES)	Kd [1] [mM]	other results
CCCCS(=N)(=O)CCC(N)C(=O)O (centres unmarked) [BSO, buthionine sulphoximine]		fluorescence intensity ratio of the sensor (level of reduced GSH) in HeLa cells (HeLa cells): reduced
CCCCCCCCCCCCCC(=O)O[C@@H]1[C@@H](C)[C@@]2(O)[C@@H](C=C(CO)C[C@]3(O)C(=O)C(C)=C[C@@H]23)[C@@H]2C(C)(C)[C@]12OC(C)=O [PMA, phorbol 12-myristate 13-acetate]		level of thiols in the cells (RAW264.7): reduced
CN(C)C(=O)C(C#N)=Cc1cc2cc3c4c(c2oc1=O)CCCN4CCC3 [formula 2]	12 ± 1	
CCOC(=O)CNC(=O)C(C#N)=Cc1cc2cc3c4c(c2oc1=O)CCCN4CCC3 [formula 3]	14 ± 1	
CC(=O)OCOC(=O)C1CCN(C(=O)C(C#N)=Cc2cc3cc4c5c(c3oc2=O)CCCN5CCC4)CC1 [formula 4]		Kd [2]: 2.8 ± 0.4 mM
CC(=O)OCOC(=O)CC[C@H](NC(=O)C1CCN(C(=O)C(C#N)=Cc2cc3cc4c5c(c3oc2=O)CCCN5CCC4)CC1)C(=O)OCOC(C)=O [formula 7]		Kd [2]: 3.7 ± 0.2 mM

More lines, main results first:

Kd [1] [mM]	Structure (SMILES)	other results
2.2 ± 0.1	N#CC(=Cc1cc2cc3c4c(c2oc1=O)CCCN4CCC3)C(=O)N1CCC(C(=O)NCC[P+](c2ccccc2)(c2ccccc2)c2ccccc2)CC1 [formula 5]	
2.2 ± 0.1	CCN(CC)c1ccc2cc(C=C(C#N)C(=O)N(C)C)c(=O)oc2c1 [formula 8]	
